From ChEMBL document CHEMBL1201862, “PubChem BioAssay data set” (2004)
Activity calls are given as the source filed them.

Assays:
[1] = biological target: T1, Induced myeloid leukemia cell differentiation protein Mcl-1 (Homo sapiens, UniProt Q07820); experiment: MCL1-BIM BH3 interaction inhibitors, dose response, biochemical, fluorescence polarization, BIM-BH3 peptide, 1536-well (AID 2217)
[2] = biological target: T2, Genome polyprotein (Hepatitis C virus, UniProt Q2Q167); experiment: HCV core protein dimerization inhibitors, dose response, biochemical, TR-FRET (AID 2159); set-up: species or system Hepacivirus hominis;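 also: blocks dimerization of HCV core protein measured by TR-FRET between tagged core106 pairs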
T2 sequence (Q2Q167 whole entry): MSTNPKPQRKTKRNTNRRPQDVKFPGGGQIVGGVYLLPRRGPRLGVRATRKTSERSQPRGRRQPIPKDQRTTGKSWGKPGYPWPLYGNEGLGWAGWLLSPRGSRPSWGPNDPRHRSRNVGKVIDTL

[3] = biological target: Bcl-2-like protein 1 (Homo sapiens, UniProt Q07817); experiment: BCL-XL inhibitors, dose response, selectivity assay for MCL1 inhibitor project, biochemical, fluorescence polarization, 1536-well (AID 2218)
[4] = biological target: T1, Induced myeloid leukemia cell differentiation protein Mcl-1; assay type: functional
[5] = biological target: Eukaryotic translation initiation factor 4E (Mus musculus, UniProt P63073); experiment: eIF4E–eIF4G protein interaction inhibitors, dose response, biochemical, TR-FRET (AID 855); assay type: functional;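 also: potency for disrupting eIF4E binding to eIF4GI seen as loss of FRET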
Sequence of Eukaryotic translation initiation factor 4E (P63073 whole entry): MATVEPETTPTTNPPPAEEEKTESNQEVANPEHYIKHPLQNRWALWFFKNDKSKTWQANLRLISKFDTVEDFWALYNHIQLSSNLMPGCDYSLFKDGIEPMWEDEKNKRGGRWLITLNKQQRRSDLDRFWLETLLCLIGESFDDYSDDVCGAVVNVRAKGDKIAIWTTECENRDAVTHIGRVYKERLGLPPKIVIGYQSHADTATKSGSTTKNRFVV

[6] = biological target: Peroxisome proliferator-activated receptor gamma/Nuclear receptor coactivator 1 (Homo sapiens, UniProt P37231); assay type: functional;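 also: agonist potency as compounds enhance coactivator SRC-1 recruitment to PPARgamma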
Sequence of Peroxisome proliferator-activated receptor gamma/Nuclear receptor coactivator 1 (P37231 whole entry): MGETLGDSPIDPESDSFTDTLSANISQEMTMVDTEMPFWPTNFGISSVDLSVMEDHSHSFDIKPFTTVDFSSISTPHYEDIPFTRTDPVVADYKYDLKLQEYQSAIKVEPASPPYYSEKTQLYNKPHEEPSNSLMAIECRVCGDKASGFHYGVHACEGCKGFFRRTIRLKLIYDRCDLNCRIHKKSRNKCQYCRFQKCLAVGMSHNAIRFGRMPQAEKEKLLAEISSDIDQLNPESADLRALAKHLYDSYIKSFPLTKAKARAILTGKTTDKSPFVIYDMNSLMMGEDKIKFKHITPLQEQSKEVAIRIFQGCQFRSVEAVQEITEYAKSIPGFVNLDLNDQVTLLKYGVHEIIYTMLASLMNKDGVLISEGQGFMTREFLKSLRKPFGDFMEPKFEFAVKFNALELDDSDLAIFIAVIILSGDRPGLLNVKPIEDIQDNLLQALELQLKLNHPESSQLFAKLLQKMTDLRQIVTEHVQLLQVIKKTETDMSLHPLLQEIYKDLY
Sequence of Peroxisome proliferator-activated receptor gamma/Nuclear receptor coactivator 1 (Q15788 whole entry, further chain): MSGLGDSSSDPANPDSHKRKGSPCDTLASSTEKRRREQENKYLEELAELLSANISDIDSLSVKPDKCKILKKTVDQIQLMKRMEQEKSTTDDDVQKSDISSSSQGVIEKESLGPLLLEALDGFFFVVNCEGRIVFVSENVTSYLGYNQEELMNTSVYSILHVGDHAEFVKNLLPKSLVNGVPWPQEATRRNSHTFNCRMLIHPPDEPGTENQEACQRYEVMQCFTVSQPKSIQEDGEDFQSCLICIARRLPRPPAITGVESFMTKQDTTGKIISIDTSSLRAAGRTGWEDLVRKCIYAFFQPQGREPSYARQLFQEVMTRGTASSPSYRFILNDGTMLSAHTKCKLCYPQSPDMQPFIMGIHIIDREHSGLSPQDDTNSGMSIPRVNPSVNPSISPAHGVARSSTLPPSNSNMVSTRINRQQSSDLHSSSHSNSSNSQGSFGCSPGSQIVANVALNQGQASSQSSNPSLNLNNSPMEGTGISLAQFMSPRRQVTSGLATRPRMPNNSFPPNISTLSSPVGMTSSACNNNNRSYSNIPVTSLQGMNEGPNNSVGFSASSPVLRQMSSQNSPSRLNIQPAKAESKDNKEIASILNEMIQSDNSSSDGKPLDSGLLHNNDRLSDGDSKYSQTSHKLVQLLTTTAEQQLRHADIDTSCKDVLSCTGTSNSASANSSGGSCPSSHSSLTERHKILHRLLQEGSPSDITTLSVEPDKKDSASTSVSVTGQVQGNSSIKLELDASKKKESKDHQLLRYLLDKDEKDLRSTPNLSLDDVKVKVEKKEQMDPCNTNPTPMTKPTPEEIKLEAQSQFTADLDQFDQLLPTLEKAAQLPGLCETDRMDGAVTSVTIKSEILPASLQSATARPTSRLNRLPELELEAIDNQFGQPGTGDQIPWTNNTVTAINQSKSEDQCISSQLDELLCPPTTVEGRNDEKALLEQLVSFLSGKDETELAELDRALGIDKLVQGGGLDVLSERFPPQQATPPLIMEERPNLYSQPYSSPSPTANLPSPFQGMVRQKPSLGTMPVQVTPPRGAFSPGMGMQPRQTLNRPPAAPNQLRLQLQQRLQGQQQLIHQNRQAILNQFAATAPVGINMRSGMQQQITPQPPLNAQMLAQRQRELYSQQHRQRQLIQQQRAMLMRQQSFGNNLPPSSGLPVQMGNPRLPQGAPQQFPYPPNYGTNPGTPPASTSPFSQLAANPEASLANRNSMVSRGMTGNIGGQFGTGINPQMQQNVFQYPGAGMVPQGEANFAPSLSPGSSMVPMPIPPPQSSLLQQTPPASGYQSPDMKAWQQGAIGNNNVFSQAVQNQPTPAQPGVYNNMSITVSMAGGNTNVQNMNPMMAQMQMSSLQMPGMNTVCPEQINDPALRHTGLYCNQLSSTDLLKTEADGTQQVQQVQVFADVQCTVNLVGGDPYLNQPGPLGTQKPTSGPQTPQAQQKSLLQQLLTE

[7] = biological target: Peroxisome proliferator-activated receptor gamma/Nuclear receptor coactivator 3 (Homo sapiens, UniProt P37231); assay type: functional;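 also: agonist potency for raising coactivator recruitment to the receptor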
[8] = biological target: Peroxisome proliferator-activated receptor gamma/Nuclear receptor coactivator 2 (Homo sapiens, UniProt P37231); assay type: functional;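 also: agonist potency for raising coactivator recruitment to the receptor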
Sequence of Peroxisome proliferator-activated receptor gamma/Nuclear receptor coactivator 2 (P37231 whole entry): as the sequence (P37231 whole entry) above
Sequence of Peroxisome proliferator-activated receptor gamma/Nuclear receptor coactivator 2 (Q15596 whole entry, further chain): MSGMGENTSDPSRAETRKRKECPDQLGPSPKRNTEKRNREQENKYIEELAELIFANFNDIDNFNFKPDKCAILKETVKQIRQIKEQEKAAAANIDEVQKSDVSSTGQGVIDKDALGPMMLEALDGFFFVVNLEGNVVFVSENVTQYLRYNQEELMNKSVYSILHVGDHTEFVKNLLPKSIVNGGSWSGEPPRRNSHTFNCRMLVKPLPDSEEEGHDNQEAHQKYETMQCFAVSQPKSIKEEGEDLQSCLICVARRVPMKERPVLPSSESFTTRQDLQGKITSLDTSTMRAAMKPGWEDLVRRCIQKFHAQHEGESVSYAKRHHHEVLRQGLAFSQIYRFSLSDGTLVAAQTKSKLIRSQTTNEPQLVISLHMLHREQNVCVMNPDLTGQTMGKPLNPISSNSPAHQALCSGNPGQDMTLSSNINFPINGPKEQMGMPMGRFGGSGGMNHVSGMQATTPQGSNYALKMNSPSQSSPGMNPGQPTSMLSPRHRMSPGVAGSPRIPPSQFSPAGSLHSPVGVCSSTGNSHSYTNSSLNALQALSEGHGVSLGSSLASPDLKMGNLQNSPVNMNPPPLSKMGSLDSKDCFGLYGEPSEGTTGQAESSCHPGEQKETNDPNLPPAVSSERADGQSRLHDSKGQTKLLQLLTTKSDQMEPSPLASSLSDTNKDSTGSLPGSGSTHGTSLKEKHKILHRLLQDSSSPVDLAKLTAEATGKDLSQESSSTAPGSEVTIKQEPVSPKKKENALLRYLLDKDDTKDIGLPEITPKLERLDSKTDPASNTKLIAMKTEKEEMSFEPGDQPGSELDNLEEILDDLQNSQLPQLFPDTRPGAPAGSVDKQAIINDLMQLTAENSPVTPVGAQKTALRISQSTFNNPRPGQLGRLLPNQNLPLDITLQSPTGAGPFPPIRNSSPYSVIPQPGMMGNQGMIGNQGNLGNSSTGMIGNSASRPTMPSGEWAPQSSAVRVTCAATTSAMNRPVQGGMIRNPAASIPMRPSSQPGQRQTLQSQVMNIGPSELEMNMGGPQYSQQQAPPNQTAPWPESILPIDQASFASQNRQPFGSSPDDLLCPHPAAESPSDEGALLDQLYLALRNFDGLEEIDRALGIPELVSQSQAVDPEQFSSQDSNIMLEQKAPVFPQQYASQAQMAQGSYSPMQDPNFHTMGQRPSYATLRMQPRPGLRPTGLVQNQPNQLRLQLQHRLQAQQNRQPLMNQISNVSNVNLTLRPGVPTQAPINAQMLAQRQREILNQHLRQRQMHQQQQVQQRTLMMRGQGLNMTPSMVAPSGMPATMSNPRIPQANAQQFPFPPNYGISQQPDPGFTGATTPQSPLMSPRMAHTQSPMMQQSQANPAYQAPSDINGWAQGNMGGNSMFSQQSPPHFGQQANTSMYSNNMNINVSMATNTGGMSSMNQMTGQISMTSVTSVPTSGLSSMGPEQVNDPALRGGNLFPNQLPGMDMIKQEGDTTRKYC

[9] = biological target: X-box-binding protein 1 (Homo sapiens, UniProt P17861); assay type: functional, Cricetulus griseus;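 also: confirmatory dose-response counter-screen serving a CHOP assay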
[10] = inhibitors of SNCA 5'UTR-driven translation, confirmation, luminescence, H4 neuroglioblastoma cells, dose confirmation (AID 2454); assay type: functional, cell-based;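 also: H4 neuroglioblastoma cells carrying an alpha-synuclein 5'UTR luciferase reporter; potency for inhibition of the luciferase signal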
[11] = cytotoxicity toward DRD oncogenic fibroblasts, dose response, cell-based, non-viral oncogenic, luminescence (AID 1934); assay type: functional; details: Homo sapiens
[12] = system: BJ; experiment: cytotoxicity toward BJ-TERT-LT-ST fibroblasts, dose response, cell-based, RAS-independent, luminescence (AID 1935); assay type: functional; details: Homo sapiens;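 also: BJ fibroblasts immortalized with TERT plus LT and ST oncogenes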
[13] = inhibitors of firefly luciferase expression or activity, dose response, H4 neuroglioma cells, luminescence (AID 1990); assay type: functional, cell-based
[14] = biological target: Paired box protein Pax-8 (Homo sapiens, UniProt Q06710); experiment: inhibitors of PAX8-driven TPO luciferase reporter, dose response, RMG-I cells, cherry-pick (AID 687027); assay type: functional, cell-based;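 also: luciferase reporter driven by Pax8 target thyroperoxidase promoter measured by SteadyGlo luminescence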
Sequence of Paired box protein Pax-8 (Q06710 whole entry): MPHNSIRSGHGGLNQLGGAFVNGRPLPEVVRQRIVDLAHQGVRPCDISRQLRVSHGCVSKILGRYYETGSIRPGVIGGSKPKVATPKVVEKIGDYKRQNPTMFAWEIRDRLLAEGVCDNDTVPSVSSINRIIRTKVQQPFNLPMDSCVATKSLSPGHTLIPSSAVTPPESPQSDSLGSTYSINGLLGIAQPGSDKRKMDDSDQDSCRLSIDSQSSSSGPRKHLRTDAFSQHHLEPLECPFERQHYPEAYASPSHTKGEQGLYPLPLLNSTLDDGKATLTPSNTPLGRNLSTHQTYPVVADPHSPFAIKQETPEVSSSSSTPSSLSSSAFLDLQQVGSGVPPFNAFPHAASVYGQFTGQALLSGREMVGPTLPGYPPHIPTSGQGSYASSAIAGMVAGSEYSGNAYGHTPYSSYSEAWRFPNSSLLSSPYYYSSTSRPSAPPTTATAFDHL

[15] = cytotoxicity in HEK-293T cells, dose response, cytotoxicity control for TCR NF-kB inhibitor project, luminescence, T-cell screen hits (AID 489026); assay type: functional, cell-based;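 also: cells exposed to compound about 14 hours before the viability readout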
[16] = inhibitors of SNCA 5'UTR-driven reporter translation, confirmation, H4 neuroglioma cells, luminescence (AID 1988); assay type: functional, cell-based
[17] = system: BJ; experiment: cells; assay type: functional, cell-based; details: Homo sapiens
[18] = cells; assay type: functional, cell-based
[19] = luciferase reporter signal reduction – luminescence, H4-C neuroglioblastoma cells, dose response (AID 2458); assay type: functional, cell-based;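 also: H4 neuroglioblastoma cells stably carrying a luciferase reporter gene fusion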
[20] = system: BJ; experiment: cytotoxicity toward BJ-TERT fibroblasts, dose response, cell-based, RAS-independent, luminescence (AID 1933); assay type: functional; details: Homo sapiens
[21] = Luminescence Cell-Based Dose Response HTS to Identify Inhibitors of 5'UTR Stem-Loop Driven Prion Protein mRNA Translation in H4 Neuroglioblastoma Cells. [Related pubchem assays: 1827 (Project Summary), 1813 (Primary HTS)]; assay type: functional
[22] = cytotoxicity in HEK-293T cells, dose response, cytotoxicity control for BCR NF-kB inhibitor project, luminescence, B-cell screen hits (AID 489021); assay type: functional, cell-based;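 also: HEK-293T cells carrying an NF-kB luciferase reporter; cells exposed to compound for about 14 hours before viability readout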
[23] = non-specific cell cytotoxicity, dose response, cytotoxicity control for PAX8 inhibitor project, plate reader, dry powder samples (AID 743021); assay type: functional, cell-based
[24] = HIV-1 Env-mediated cell fusion inhibitors, dose response, CCR5-tropic Env (AID 2279); assay type: functional

T1 sequence (Q07820 whole entry): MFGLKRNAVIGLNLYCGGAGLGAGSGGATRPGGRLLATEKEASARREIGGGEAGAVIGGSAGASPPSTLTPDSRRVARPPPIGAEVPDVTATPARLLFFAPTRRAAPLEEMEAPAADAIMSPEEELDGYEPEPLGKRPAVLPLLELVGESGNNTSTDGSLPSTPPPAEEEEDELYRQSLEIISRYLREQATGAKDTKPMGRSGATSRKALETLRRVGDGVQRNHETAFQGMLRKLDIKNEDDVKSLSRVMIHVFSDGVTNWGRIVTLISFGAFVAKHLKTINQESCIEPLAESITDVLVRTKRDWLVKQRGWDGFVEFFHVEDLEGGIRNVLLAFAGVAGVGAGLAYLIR

**Q.** Which IC50 [1] does the source give for `COc1ccc(Cc2nnc(NC(=O)Cc3cccs3)s2)cc1OC` here?
**A.** Its IC50 is 5.14 µM (active).

**Q.** What about the IC50 [2] of the same molecule?
**A.** Its IC50 is > 49.8 µM (not active).

**Q.** What about the IC50 [3] of the same molecule?
**A.** The IC50 was > 109 µM (not active).

**Q.** And the IC50 [4]?
**A.** Its IC50 is 1.97 µM (active).

**Q.** And the IC50 [5]?
**A.** Its IC50 is 19.1 µM (active).

**Q.** Which results are given for `O=C(NCc1nnc(S)n1-c1ccc(Br)cc1)c1ccc(S(=O)(=O)N2CCOCC2)cc1`?
**A.** EC50 [6]: > 79.4 µM (not active); EC50 [7]: > 79.4 µM (not active); EC50 [8]: > 79.4 µM (not active)

**Q.** Which “Absolute IC50 (XBP1)” value [9] does the source give for `CC1CCCC(NC(=O)COC(=O)/C=C/c2ccc3c(c2)OCO3)C1C` (stereo unspecified) here?
**A.** Its value is 10 µM.

**Q.** With `COc1cc(C2C3=C(Nc4ncnn42)c2ccccc2CC3)cc(OC)c1OC` (stereo unspecified) as the molecule, how does the EC50 [10] read?
**A.** Its EC50 is 0.348 µM (active).

**Q.** What about the EC50 [11] of the same molecule?
**A.** Its EC50 is 0.532 µM (active).

**Q.** What about the EC50 [12] of the same molecule?
**A.** Its EC50 is 0.498 µM (inconclusive).

**Q.** What about the EC50 [13] of the same molecule?
**A.** Its EC50 is < 0.1 µM (active).

**Q.** And the AC50 [14]?
**A.** The AC50 was 2.18 µM (active).

**Q.** What about the IC50 [15] of the same molecule?
**A.** The IC50 was > 80 µM (inactive).

**Q.** And the EC50 [16]?
**A.** Its EC50 is < 0.1 µM (active).

**Q.** And the EC50 [17]?
**A.** Its EC50 is 0.659 µM (active).

**Q.** And the EC50 [18]?
**A.** Its EC50 is 0.452 µM (active).

**Q.** What about the EC50 [19] of the same molecule?
**A.** The EC50 was 0.21 µM (active).

**Q.** And the EC50 [20]?
**A.** Its EC50 is 0.572 µM (active).

**Q.** What about the EC50 [21] of the same molecule?
**A.** The EC50 was < 0.1 µM (active).

**Q.** What does the source list for `COc1ccc(OCc2cccc(C(=O)Nc3cc(C)on3)c2)cc1`?
**A.** IC50 [22]: > 80 µM (inactive); AC50 [14]: 4.14 µM (active); EC50 [16]: 9.85 µM (inconclusive); EC50 [21]: > 60 µM (not active); AC50 [23]: 43.9 µM (active)

**Q.** Which IC50 [24] does the source give for `COCCN1C(=O)/C(=C/c2ccc(OCc3ccc(C(=O)O)cc3)c(OC)c2)S/C1=N\c1ccccc1` here?
**A.** The IC50 was 40.2 µM (active).

**Q.** Which EC50 [6] does the source give for `O=C(N/N=C/c1cnc(N2CCCCC2)s1)c1ccc(Cl)cc1` here?
**A.** Its EC50 is > 79.4 µM (not active).

**Q.** What about the EC50 [7] of the same molecule?
**A.** Its EC50 is > 79.4 µM (not active).

**Q.** What about the EC50 [8] of the same molecule?
**A.** The EC50 was > 79.4 µM (not active).

**Q.** With `CC(=C/c1ccco1)/C=N/NC(=O)CSc1nnc(SCc2ccc(C)cc2)s1` as the molecule, how does the IC50 [22] read?
**A.** The IC50 was > 80 µM (inactive).
